In US4758586A, “Indolyl compounds and hyposensitivity use thereof” (USV Pharmaceutical Corp., priority 1986, dated 1988):
pIC50: −log10 of the molar value. Read-outs that look alike come from different tables or passages of the source. Each block holds one compound with its values, some of them ahead of it.

Experiments:
[1] = tested on: leukotriene C4 -induced contraction of guinea pig peripheral strips; test: SRS-A antagonists (SALTI): leukotriene C4-induced contraction of guinea pig peripheral lung strips
Protocol: Protocol for SRS-A (Slow-reacting Substance of Anaphylaxis Antagonists (SALTI)
Peripheral strips of guinea pig lungs are prepared and hung in tissue baths (Metro #ME-5505, 10 ml) according to the published procedure (Pro. Nat'l. Acad. Sci., U.S.A. Volume 77, pp. 4354-4358, 1980). The strips are thoroughly rinsed in Assay Buffer and then connected with surgical silk thread to the support rods from the tissue baths. The rods are adjusted in the baths and the strips connected to the pressure transducers (Grass FT 103 or Gould UC-3). The tissue baths are aerated with 95% oxygen 5% carbon dioxide and maintained at 37° C. The Assay Buffer has been made as follows: For each liter of buffer the following are added to approximately 800 ml of water distilled in glass--6.87 g. NaCl, 0.4 g. KCl, […]. NaHCO3, 0.14 g. NaH2 PO4.H2 O, 0.21 g. MgSO4.7H2 O, and 2.0 g. D-glucose. Then a solution of 0.368 g. CaCl2.2H2 O in 100 ml glass-distilled water is slowly added to the buffer. Sufficient water is added to adjust the volume to one liter, and the solution is aerated with 95% oxygen--5% carbon dioxide. Usually 10 liters of buffer are used for an experiment with 4 tissues.
After the tissues have been repeatedly washed and allowed to equilibrate in the tissue bath, they are challenged with 1 μM histamine. After maximum contractions have been obtained, the tissues are washed, and allowed to relax back to baseline tension. This histamine challenge procedure is repeated at least 1 to 2 more times to obtain a repeatable control response. The average response to 1 μM histamine for each tissue is used to normalize all other challenges.
Responses of each tissue to a predetermined concentration of leukotriene are then obtained. Usually test compounds are examined initially at 30 μM on resting tension of the tissues without any added agonist or antagonist to determine if the compound has any possible intrinsic activity. The tissues are washed, and the test compound is added again. Leukotriene is added after the desired pre-incubation time. The intrinsic activity of the compounds, and their effect on leukotriene-induced contractions are then recorded.
The concentration required for 50% inhibition of 0.2 μM leukotriene C4 -induced contraction of guinea pig peripheral strips for representative compounds of the present invention is shown in Table 3.

Phospholipase A2 (PLA2) = target: T1, Phospholipase A2 (PLA2) (Rattus norvegicus, UniProt P14423); test: In vitro assay for inhibitors of Phospholipase A2 (PLA2) from rat platelets; format: biochemical
T1 construct: obtained by aggregation of purified rat platelets; from tissue; host or cells: rat platelets (enzyme obtained by aggregation)
T1 sequence (P14423 22-146): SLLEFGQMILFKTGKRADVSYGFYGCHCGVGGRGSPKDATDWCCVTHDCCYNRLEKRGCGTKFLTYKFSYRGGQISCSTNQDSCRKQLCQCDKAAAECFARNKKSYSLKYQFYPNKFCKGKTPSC
Description: B. In Vitro Assay For Inhibitors of Phospholipase A2 Assayed at pH 7.0 (PLA2)
The PLA2 employed in this screen is obtained by aggregation of purified rat platelets. In the enzyme assay phosphatidylcholine having ^14 C-labeled palmitate residues at R1 and R2 is employed as substrate. PLA2 acts by cleaving the R2 fatty acid ester bond yielding free fatty acid and lysophosphatidyl choline as follows: [drawing 19]
Following completion of the reaction, the assay medium is acidified and extracted with hexane, which takes up unreacted substrate and free fatty acid product. The hexane extract is passed over a short silica column which retains 99% of the phosphatidyl choline. The ^14 C-labeled palmitic acid is not retained (90% recovery in eluate) and is collected directly in scintillation counting vials. The released palmitic acid is conveniently quantitated by liquid scintillation spectrometry.
The compounds were tested at 100 uM in a buffer containing 0.3 mM unlabeled phosphatidylcholine (PC), 20-30,000 cpm of ^14 C(CPC), […], 1 mM CaCl2 and 50 mM tris-HCl adjusted to pH 7.2 with 1N NaOH. […] The temperature of the buffer was maintained at a temperature of 37° C. The reaction was initiated by addition of the enzyme and it was terminated 30 minutes later by the addition of […] of 1N HCl.
Following acidification, the samples were extracted with 2 ml of 2-propanol and 2 ml of hexane, vortexed and allowed to stand until the phases separated. Free fatty acids (FFA) and some unreacted substrate were taken up in the isopropanol-saturated hexane. The hexane phase of the extraction mixture was transferred to a short silica gel column which retained […] but not the FFA. The column effluent was collected directly in scintillation vials. The columns were washed once with an additional 2 ml of hexane. The radio labeled FFA were quantitated by liquid scintillation spectrometry.

5-lipoxygenase = target: T2, 5-lipoxygenase (Rattus norvegicus, UniProt P12527); test: Protocol for detecting inhibitors of the lipoxygenase pathway (5-HETE formation in rat neutrophils); format: cell-based
T2 construct: A suspension of rat neutrophils in buffer; endogenous in cells; host or cells: rat neutrophils (PMN)
T2 sequence (P12527 1-673): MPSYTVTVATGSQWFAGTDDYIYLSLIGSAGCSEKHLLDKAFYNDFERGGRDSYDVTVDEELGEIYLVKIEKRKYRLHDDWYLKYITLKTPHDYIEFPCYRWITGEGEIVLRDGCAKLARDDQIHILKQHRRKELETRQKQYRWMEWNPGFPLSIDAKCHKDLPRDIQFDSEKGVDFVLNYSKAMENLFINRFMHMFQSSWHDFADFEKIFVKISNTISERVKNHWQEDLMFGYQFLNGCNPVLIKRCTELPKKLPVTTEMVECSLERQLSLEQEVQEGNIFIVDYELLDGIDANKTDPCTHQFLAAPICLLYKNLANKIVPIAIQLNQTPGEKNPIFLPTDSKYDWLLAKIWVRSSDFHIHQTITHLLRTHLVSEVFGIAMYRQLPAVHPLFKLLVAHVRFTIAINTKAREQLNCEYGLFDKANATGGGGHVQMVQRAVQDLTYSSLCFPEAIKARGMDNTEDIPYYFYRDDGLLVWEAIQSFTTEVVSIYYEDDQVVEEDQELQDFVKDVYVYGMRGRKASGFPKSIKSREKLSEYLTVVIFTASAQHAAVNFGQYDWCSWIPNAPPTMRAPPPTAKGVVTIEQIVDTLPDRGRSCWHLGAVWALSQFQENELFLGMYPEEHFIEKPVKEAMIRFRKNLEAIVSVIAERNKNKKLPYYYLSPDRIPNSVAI
Protocol: Protocol for Detecting Inhibitors of the Lipoxygenase Pathway
A suspension of rat neutrophils in buffer is incubated for 3 minutes at 30° C. with [^14 C]-arachidonic acid (AA) and Calcium Ionophore A23187. Citric acid (2M) is used to quench the reaction. Following the addition of a trace amount of (^3 H)-5-HETE together with an excess of unlabeled 5-HETE to each tube, the mixture is extracted with chloroform/methanol. The organic layer is washed with dilute acid and an aliquot is transferred to glass tubes and dried. The residue is dissolved in a small volume of chloroform and an aliquot is spotted on silica get TLC sheets, which are developed with an ethyl acetate/isooctane/water acetic acid solvent system. The 5-HETE spots are visualized with iodine, cut out and placed in scintillation vials for counting. After adjusting for the extraction efficiency, the amount (pmole) of [^14 C]-5-HETE in each of the tubes is quantitated. The net pmoles of 5-HETE are obtained by subtracting the pmoles of 5-HETE in the tubes containing […]. The ability of the test compounds to modulate the activity of this enzyme is determined by a decrease or increase in the net amount of 5-HETE produced.

Phospholipase C (PLC) = test: In vitro assay for inhibitors of Phospholipase C (PLC) from rat platelets; format: biochemical; details: at level tested (300 u)
Description: A. Protocol For In Vitro Assay For Inhibitors Of Phospholipase C (PLC)
The PLC employed in this screen is obtained by aggregation of purified rat platelets in the presence of CaCl2 and ADP. In the enzyme assay phosphatidylinositol having ^3 H -labeled arachidonate residues at R2 is employed as substrate. PLC acts by cleaving the phosphate ester bond yielding diglyceride as follows: [drawing 18]
Following completion of the reaction, the assay medium is acidified and extracted with hexane which takes up unreacted substrate and diglyceride. The hexane extract is passed over a short silica gel column which retains 99% of the phosphatidylinositol. The ^3 H-labeled diglyceride is not retained […]. The diglyceride is conveniently quantitated by liquid scintillation spectrometry.
The compounds were tested at 300 u in a buffer containing 0.06 mM unlabeled phosphatidylcholine (PC), 20-30,000 cpm of (CPC), 150 mM NaCl, 5 mM CaCl2 and 50 mM tris(hydroxymethyl)methylaminopropanesulfonic acid buffer, adjusted to pH 9.0 with 1N NaOH. The temperature of the buffer was maintained at a temperature of 37° C. The reaction was initiated by addition of the enzyme and it was terminated 10 minutes later by addition of 1 ml of 1N HCl.
Following acidification, the samples were extracted with 2 ml of isopropyl alcohol and 2 ml of hexane, vortexed and allowed to stand until the phases separate. […] and some unreacted substrate were taken up in the isopropanol-saturated hexane. The hexane phase of the extraction mixture was transferred to a short silica gel column which retains unreacted phosphatidylinositol, but not the 3H-diglyceride. The column effluent was collected directly in scintillation vials. The columns were washed once with additional 2 ml of hexane. The radiolabelled diglycerides were quantitated by liquid scintillation.

[2] = Cavia porcellus, leukotriene-induced contraction, read-out: SALTI I50 (Table 5)
[3] = Formula III, n=1 compounds, read-out: LOX I50 (Table 5)
[4] = rat PMN, [14C]-arachidonic acid + A23187, 5-HETE, read-out: LOX, (RAT PMN) I50
[5] = read-out: PLA2, inhibition level reached at 30 μM (Ixx = 30 μM)
[6] = Cavia porcellus, 0.2 μM leukotriene C4-induced contraction, read-out: SALTI, I50 μM

Structure (SMILES): O=C(O)C=Cc1cn(Cc2ccccc2)c2ccccc12 [B-(1-Benzylindol-3-yl)acrylic acid]
inhibition at 30 µM (Phospholipase A2 (PLA2); read-out: PLA2, inhibition level reached at 30 μM (printed I44 = 30 μM, Table 5)): 44%

Structure (SMILES): CCOC(=O)C=Cc1c(C)n(Cc2ccccc2)c2ccccc12 [Ethyl B-(1-benzyl-2-methyl-indol-3-yl)acrylate]
pIC50 (5-lipoxygenase; [3]): 6.00
PLC activity class (Table 5) (Phospholipase C (PLC)): I

Structure (SMILES): CCOC(=O)C=Cc1cc2ccccc2[nH]1 [Ethyl B-(indol-2-yl)acrylate]
pIC50 [1, 2]: 4.52
PLC activity class (Table 5) (Phospholipase C (PLC)): I

Structure (SMILES): CCOC(=O)C=Cc1c[nH]c2ccccc12 [Ethyl β-(indol-3-yl)acrylate, reference compound]
pIC50 (5-lipoxygenase; [3]): 5.10
PLA2 activity class (Table 5) (Phospholipase A2 (PLA2); at level tested (100 uM)): I
PLC activity class (Table 5) (Phospholipase C (PLC)): I

Structure (SMILES): CCOC(=O)C=Cc1cn(Cc2ccccc2)c2ccccc12 [Ethyl-B-(benzylindol-3-yl)acrylate, reference compound]
SALTI activity class (Table 5) ([1]; at level tested (initially 30 μM)): I

Structure (SMILES): O=C(O)C=CC=Cc1cn(Cc2ccccc2)c2ccccc12 [Example 2, 5-(1-Benzylindol-3-yl)-2,4-Pentadienoic Acid]
pIC50 (5-lipoxygenase; [4]): 5.70
pIC50 (Phospholipase A2 (PLA2)): 4.80

Structure (SMILES): CCOC(=O)C=CC=Cc1cn(Cc2ccccc2)c2ccc(OCc3ccccc3)cc12 [Example 4, Ethyl 5-(1-Benzyl-5-Benzyloxyindol-3-yl)-2,4-Pentadienoate]
inhibition at 30 µM (Phospholipase A2 (PLA2); [5]): 37%

Structure (SMILES): COc1ccc2c(c1)c(C=CC=CC(=O)O)cn2Cc1ccccc1 [Example 7, 5-(1-Benzyl-5-methoxyindol-3-yl)-2,4-Pentadienoic Acid]
pIC50 (5-lipoxygenase; [4]): 5.22
pIC50 [1, 6]: 4.70
inhibition at 30 µM (Phospholipase A2 (PLA2); [5]): 42%

The next lines start with results.

pIC50 [1, 2]: 4.70
Structure (SMILES): Cc1c(C=CC(=O)O)c2ccccc2n1Cc1ccccc1 [B-(1-Benzyl-2-methyl-indol-3-yl)acrylic acid]

pIC50 (5-lipoxygenase; [4]): 5.00
Structure (SMILES): CCOC(=O)C=CC=Cc1cn(Cc2ccccc2)c2ccccc12 [Example 1, Ethyl 5-(1-Benzylindol-3-yl)-2,4-Pentadienoate]

pIC50 (5-lipoxygenase; [4]): 5.70
Structure (SMILES): CCOC(=O)c1ccc(NC(=O)C=CC=Cc2cn(Cc3ccccc3)c3ccccc23)cc1 [Example 3, N-(4-Carbethoxyphenyl)-5-(1-benzylindol-3-yl)-2,4-Pentadienamide]

pIC50 (5-lipoxygenase; [4]): 5.70
Structure (SMILES): O=C(O)C=CC=Cc1cn(Cc2ccccc2)c2ccc(OCc3ccccc3)cc12 [Example 5, 5-(1-Benzyl-5-Benzyloxyindol-3-yl)-2,4-Pentadienoic Acid]

pIC50 (5-lipoxygenase; [4]): 5.40
Structure (SMILES): CCOC(=O)C=CC=Cc1cn(Cc2ccccc2)c2ccc(OC)cc12 [Example 6, Ethyl 5-(1-Benzyl-5-Methoxyindol-3-yl)-2,4-Pentadienoate]

pIC50 (5-lipoxygenase; [4]): 4.92
pIC50 [1, 6]: 5.70
Structure (SMILES): CCOC(=O)C=CC=Cc1c[nH]c2ccccc12 [Example 10, Ethyl 5-(indol-3-yl)-2,4-Pentadienoate]

pIC50 (5-lipoxygenase; [4]): 4.82
Structure (SMILES): CCOC(=O)C=CC=Cc1c(C)n(Cc2ccccc2)c2ccccc12 [Example 11, Ethyl 5-(1-Benzyl-2-methylindol-3yl)-2,4-Pentadienoate]

pIC50 (5-lipoxygenase; [4]): 5.12
Structure (SMILES): OCC=Cc1cn(Cc2ccccc2)c2ccccc12 [Example 13, 1-Benzyl-3-(3-Hydroxy-1-Propen-1-yl)Indole]

pIC50 (5-lipoxygenase; [4]): 5.00
Structure (SMILES): CCOC(=O)C=CC=Cc1cc2cc(OC)ccc2[nH]1 [Example 16, Ethyl 5-(5-methoxyindol-2-yl)-2,4-Pentadienoate]
inhibition at 30 µM ([1]; Cavia porcellus, at 30 μM, 0.2 μM leukotriene C4-induced contraction, read-out: SALTI, % I at 30 μM): 53%

pIC50 (5-lipoxygenase; [4]): 5.00
Structure (SMILES): CCOC(=O)C=CC=Cc1cc2cc(OC)ccc2n1C(=O)c1ccc(Cl)cc1 [Example 17, Ethyl 5-(1-p-chlorobenzoyl-5-methoxyindol-2-yl)-2,4-Pentadienoate]
